Data reported in PubChem BioAssay (NCI).
Values joined by “and” are separate entries in the source; they are usually repeats but may differ in a detail not shown here. Equal entries are not always repeated.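 Test compounds were applied to cells in 96-well plates for 48 hours at 5 doses. GI50 = concentration required for 50% inhibition of growth. TGI is the concentration that stops growth completely.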

How the values were obtained:
Experiment in all cases: NCI anticancer screen, dose series, 48 h
K-562 leukemia = system: K-562 leukemia
A498 renal = system: A498 renal
SK-MEL-5 melanoma = system: SK-MEL-5 melanoma
CCRF-CEM leukemia = system: CCRF-CEM leukemia
UACC-257 melanoma = system: UACC-257 melanoma
SN12C renal = system: SN12C renal
DU-145 prostate = system: DU-145 prostate
OVCAR-5 ovarian = system: OVCAR-5 ovarian
MCF7 breast = system: MCF7 breast
COLO 205 colon = system: COLO 205 colon
SR leukemia = system: SR leukemia
NCI-H23 lung = system: NCI-H23 lung
OVCAR-8 ovarian = system: OVCAR-8 ovarian
MDA-MB-231 breast = system: MDA-MB-231 breast
MOLT-4 leukemia = system: MOLT-4 leukemia
HS 578T breast = system: HS 578T breast
SK-MEL-28 melanoma = system: SK-MEL-28 melanoma
NCI-H460 lung = system: NCI-H460 lung
786-0 renal = system: 786-0 renal
SF-295 CNS = system: SF-295 CNS
SK-OV-3 ovarian = system: SK-OV-3 ovarian
TK-10 renal = system: TK-10 renal
RXF 393 renal = system: RXF 393 renal
NCI-H522 lung = system: NCI-H522 lung
SF-539 CNS = system: SF-539 CNS
OVCAR-4 ovarian = system: OVCAR-4 ovarian
UACC-62 melanoma = system: UACC-62 melanoma
HT29 colon = system: HT29 colon
PC-3 prostate = system: PC-3 prostate
UO-31 renal = system: UO-31 renal
SK-MEL-2 melanoma = system: SK-MEL-2 melanoma
HCC-2998 colon = system: HCC-2998 colon
SF-268 CNS = system: SF-268 CNS
CAKI-1 renal = system: CAKI-1 renal
HOP-62 NSCLC = system: HOP-62 NSCLC
M14 melanoma = system: M14 melanoma
HOP-92 NSCLC = system: HOP-92 NSCLC
KM12 colon = system: KM12 colon
IGROV1 ovarian = system: IGROV1 ovarian
ACHN renal = system: ACHN renal
NCI-H226 lung = system: NCI-H226 lung
SW-620 colon = system: SW-620 colon
HCT-15 colon = system: HCT-15 colon
MDA-MB-435 = system: MDA-MB-435
SNB-75 CNS = system: SNB-75 CNS
EKVX NSCLC = system: EKVX NSCLC
MALME-3M melanoma = system: MALME-3M melanoma
OVCAR-3 ovarian = system: OVCAR-3 ovarian
HCT-116 colon = system: HCT-116 colon
A549 NSCLC = system: A549 NSCLC
BT-549 breast = system: BT-549 breast
T-47D breast = system: T-47D breast
RPMI-8226 leukemia = system: RPMI-8226 leukemia
SNB-19 CNS = system: SNB-19 CNS
NCI/ADR-RES ovarian = system: NCI/ADR-RES ovarian
LOX IMVI melanoma = system: LOX IMVI melanoma
HL-60(TB) leukemia = system: HL-60(TB) leukemia

CN1C(=O)[C@]23SSC1(C)C(=O)N2[C@H]1Nc2ccccc2C1([C@@]12c4ccccc4N[C@@H]1N1C(=O)C4(C)SS[C@]1(C(=O)N4C)[C@H]2O)[C@@H]3O (stereo partly specified)
GI50 (K-562 leukemia): 0.0397 µM and 0.0847 µM
TGI (K-562 leukemia): 2.88 µM and 10.5 µM
GI50 (A498 renal): 0.384 µM and 2.33 µM
TGI (A498 renal): 0.678 µM and 3.81 µM
TGI (SK-MEL-5 melanoma): 0.242 µM and 2.01 µM
GI50 (CCRF-CEM leukemia): 0.0739 µM and 0.203 µM
TGI (CCRF-CEM leukemia): 1.56 µM and 2.21 µM
GI50 (UACC-257 melanoma): 0.0348 µM and 0.208 µM
TGI (UACC-257 melanoma): 0.0943 µM and 0.488 µM
GI50 (SN12C renal): 0.107 µM and 0.407 µM
TGI (SN12C renal): 1.17 µM and 1.91 µM
GI50 (DU-145 prostate): 0.0461 µM and 0.299 µM
TGI (DU-145 prostate): 0.208 µM and 1.44 µM
GI50 (OVCAR-5 ovarian): 0.36 µM and 1.44 µM
TGI (OVCAR-5 ovarian): 0.756 µM and 4.21 µM
GI50 (MCF7 breast): 0.0107 µM and 0.0457 µM
TGI (MCF7 breast): 0.223 µM and 1.22 µM
GI50 (COLO 205 colon): 0.0283 µM and 0.153 µM
TGI (COLO 205 colon): 0.0613 µM and 0.395 µM
GI50 (SR leukemia): 0.0465 µM and 0.21 µM
TGI (SR leukemia): 0.417 µM and 1.07 µM
GI50 (NCI-H23 lung): 0.0374 µM
TGI (NCI-H23 lung): 0.101 µM
GI50 (OVCAR-8 ovarian): 0.0348 µM and 0.165 µM
TGI (OVCAR-8 ovarian): 0.0751 µM and 0.359 µM
GI50 (MDA-MB-231 breast): 0.0549 µM and 0.321 µM
TGI (MDA-MB-231 breast): 0.184 µM and 0.827 µM
GI50 (MOLT-4 leukemia): 0.0653 µM and 0.214 µM
TGI (MOLT-4 leukemia): 0.59 µM and 1.37 µM
GI50 (HS 578T breast): 0.465 µM and 1.58 µM
TGI (HS 578T breast): 1.73 µM and 5.4 µM
GI50 (SK-MEL-28 melanoma): 0.0339 µM and 0.187 µM
TGI (SK-MEL-28 melanoma): 0.0766 µM and 0.419 µM
GI50 (NCI-H460 lung): 0.129 µM and 0.326 µM
TGI (NCI-H460 lung): 1.49 µM and 1.14 µM
GI50 (786-0 renal): 0.0448 µM and 0.185 µM
TGI (786-0 renal): 0.108 µM and 0.363 µM
GI50 (SF-295 CNS): 0.275 µM and 2.38 µM
TGI (SF-295 CNS): 0.555 µM and 4.69 µM
GI50 (SK-OV-3 ovarian): 0.293 µM and 1.67 µM
TGI (SK-OV-3 ovarian): 0.751 µM and 4.05 µM
GI50 (TK-10 renal): 0.0545 µM and 0.503 µM
TGI (TK-10 renal): 0.128 µM and 0.906 µM
GI50 (RXF 393 renal): 0.033 µM and 0.17 µM
TGI (RXF 393 renal): 0.0657 µM and 0.318 µM
GI50 (NCI-H522 lung): 0.0288 µM and 0.179 µM
TGI (NCI-H522 lung): 0.0619 µM and 0.395 µM
GI50 (SF-539 CNS): 0.0687 µM and 0.277 µM
TGI (SF-539 CNS): 0.264 µM and 0.762 µM
GI50 (OVCAR-4 ovarian): 0.0302 µM and 0.164 µM
TGI (OVCAR-4 ovarian): 0.0731 µM and 0.322 µM
GI50 (UACC-62 melanoma): 0.137 µM and 0.42 µM
TGI (UACC-62 melanoma): 0.398 µM and 1.82 µM
GI50 (HT29 colon): 0.0276 µM and 0.187 µM
TGI (HT29 colon): 0.0865 µM and 0.454 µM
GI50 (PC-3 prostate): 0.185 µM and 0.662 µM
TGI (PC-3 prostate): 0.72 µM and 3.01 µM
GI50 (UO-31 renal): 0.0452 µM and 0.192 µM
TGI (UO-31 renal): 0.122 µM and 0.367 µM
GI50 (SK-MEL-2 melanoma): 0.265 µM and 0.718 µM
TGI (SK-MEL-2 melanoma): 0.54 µM and 2.16 µM
GI50 (HCC-2998 colon): 0.0791 µM and 0.567 µM
TGI (HCC-2998 colon): 0.297 µM and 1.94 µM
GI50 (SF-268 CNS): 0.309 µM and 1.96 µM
TGI (SF-268 CNS): 1.26 µM and 5.58 µM
GI50 (CAKI-1 renal): 0.0488 µM and 0.154 µM
TGI (CAKI-1 renal): 0.17 µM and 0.396 µM
GI50 (HOP-62 NSCLC): 0.219 µM and 1.4 µM
TGI (HOP-62 NSCLC): 0.576 µM and 3.3 µM
GI50 (M14 melanoma): 0.0482 µM and 0.175 µM
TGI (M14 melanoma): 0.163 µM and 0.451 µM
GI50 (HOP-92 NSCLC): 0.307 µM and 0.302 µM
TGI (HOP-92 NSCLC): 0.64 µM and 0.674 µM
GI50 (KM12 colon): 0.14 µM and 1.21 µM
TGI (KM12 colon): 0.478 µM and 3.41 µM
GI50 (IGROV1 ovarian): 0.238 µM and 0.29 µM
TGI (IGROV1 ovarian): 0.57 µM and 0.864 µM
GI50 (ACHN renal): 0.0371 µM and 0.0577 µM
TGI (ACHN renal): 0.1 µM and 0.508 µM
GI50 (NCI-H226 lung): 0.29 µM
TGI (NCI-H226 lung): 0.807 µM
GI50 (SW-620 colon): 0.0667 µM and 0.144 µM
TGI (SW-620 colon): 0.434 µM and 0.66 µM
GI50 (HCT-15 colon): 0.0217 µM and 0.143 µM
GI50 (MDA-MB-435): 0.0967 µM and 0.265 µM
TGI (MDA-MB-435): 0.413 µM and 0.804 µM
GI50 (SNB-75 CNS): 0.209 µM and 1.96 µM
TGI (SNB-75 CNS): 0.544 µM and 3.5 µM
GI50 (EKVX NSCLC): 0.0644 µM and 0.606 µM
TGI (EKVX NSCLC): 0.504 µM and 3.69 µM
GI50 (MALME-3M melanoma): 0.0227 µM and 0.0505 µM
TGI (MALME-3M melanoma): 0.0539 µM and 0.184 µM
GI50 (OVCAR-3 ovarian): 0.0202 µM and 0.183 µM
TGI (OVCAR-3 ovarian): 0.0571 µM and 0.426 µM
GI50 (HCT-116 colon): 0.0558 µM and 0.0974 µM
TGI (HCT-116 colon): 0.229 µM and 0.556 µM
TGI (A549 NSCLC): 1.1 µM and 6.85 µM
GI50 (BT-549 breast): 0.218 µM and 1.49 µM
TGI (BT-549 breast): 0.486 µM and 2.97 µM
GI50 (T-47D breast): 0.022 µM and 0.184 µM
TGI (T-47D breast): 0.0899 µM and 0.595 µM
GI50 (RPMI-8226 leukemia): 0.0536 µM and 0.257 µM
TGI (RPMI-8226 leukemia): 0.221 µM and 0.882 µM
GI50 (SNB-19 CNS): 0.455 µM and 1.33 µM
TGI (SNB-19 CNS): 1.58 µM and 4.34 µM
GI50 (NCI/ADR-RES ovarian): 0.121 µM and 0.549 µM
TGI (NCI/ADR-RES ovarian): 0.588 µM and 3.74 µM
GI50 (LOX IMVI melanoma): 0.0309 µM and 0.165 µM
TGI (LOX IMVI melanoma): 0.0708 µM and 0.394 µM
GI50 (HL-60(TB) leukemia): 0.235 µM and 0.254 µM
TGI (HL-60(TB) leukemia): 0.782 µM and 1.53 µM
